Measurements reported in patent US4693992A, “Bacitracin-metal-polyether antibiotic complexes” (International Minerals & Chemical Corp., priority 1985, dated 1987).

Columns and labels:
[1] = Weight gain and feed utilization efficiency in chicks, 11 days (Example 13); assay type: in vivo, chicken; set-up: key to Average Weight: average weight in grams; conditions: for Average Gain / Gain/Feed Ratio / Average Weight / Gain/Feed / Average Gain Index / Gain/Feed Ratio Index: .00275% in rye basal diet; for Average Gain / Gain/Feed Ratio: 11 days; for Average Gain Index / Gain/Feed Ratio Index: unmedicated = 100
Protocol: (§1) This example describes experimetnal testing of complexes of the present invention as feed additives for improving weight gain or feed utilization efficiency in birds. Test animals were male meat-type chickens (Hubbard strain). Fluorescent room lights were on a 16 hours light/8 hours dark schedule. The chicks were allotted to the pens on the basis of weight classes, and chicks in the even numbered pens were wing banded. Group weights were obtained at the start and individual weights at the termination of the experiment. Chicks weighing between 55 and 65 grams were selected for the test. The test compounds were blended with a basal feed ration (shown in Table 2) at the indicated concentration. Birds fed […] and feed supplemented with zinc bacitracin (Baciferm® 50, International Minerals and Chemical Corp.) were used as controls. The test was continued for 11 days, after which individual weights, pen weight and feed consumption were recorded and analyzed.

[2] = Weight gain and feed utilization in chicks, 12 days (Example 14); assay type: in vivo, chicken; conditions: .0066% in feed; for Gain/Feed Data / Gains/gram Data: 12 days; for Gain/Feed Index Relative to #1 / Gains Index Relative to #1: #1 = unmedicated; for Gain/Feed Index Relative to #2 / Gains Index Relative to #2: #2 = zinc bacitracin
Protocol: as §1
All of the bacitracin-metal-polyether antibiotic complexes tested produced statistically significant increases in gains compared to the unmedicated basal ration.
The test involving test compounds 1 and 3-14 consisted of 5 replicates of 7 chicks and those involving test compound 2 consisted of 6 replicates of 7 chicks. The tests were continued for 12 days, after which individual weight gains and feed conusumption were recorded and analyzed.

Eimeria tenella [3] = test: Anticoccidial activity in chickens inoculated with Eimeria tenella oocysts (Example 11); assay type: in vivo; conditions: for Morbidity: birds affected/birds in group; for Mortality: 4th-7th day, birds dead/birds in group; for F/G Day 0-3 / F/G Day 4-10: feed per gain
Protocol: (§2) This example describes experimental testing of complexes of this invention for anticoccidial activity. Anticoccidial activities of test compounds were determined by administering the compounds (in feed) to chickens inoculated with active oocysts of Eimeria tenella. The test compounds, which are listed in Table 1 below, included four bacitracin-metal-polyether antibiotic complexes prepared according to the procedures described above. In addition, sodium lysocellin, regular bacitracin, sodium monensin, sodium lasolocid, and unmedicated inoculated and noninoculated controls were included for comparative purposes.
(§3) The test animals were Hubbard White Mountain male chicken (broiler strain) that were 5 days old at the beginning of the test. Each experimental compound was administered in a chick starter diet (Table 2) at a level of 80 g/ton and 120 g/ton. At 7 days of age, chicks were individually weighed, banded, and started on their respective treatments. Each treatment was replicated three times with five birds per replicate for a total of 15 birds per group. The test period was 10 days.
Seventy-two hours after the initiation of medication, birds were reweighed and orally inoculated with approximately 100,000 Eimeria tenella oocysts suspended in a 1 cc dose of saline. The following criteria were then evaluated over the next seven days: […]
a. morbidity (4th-6th day) b. mortality (4th-7th day) c. incidence of bloody droppings (4th-6th day)

Eimeria tenella [4] = test: Anticoccidial activity in chickens inoculated with Eimeria tenella (Example 12); assay type: in vivo, chicken; conditions: for Cecal Bleeding / Gain/Bird Days 0-3 / Gain/Bird Days 4-10: regrouped part of Table 2
Protocol: as §2, §3
Seventy-two hours after the initiation of medication, birds were reweighed and orally inoculated with approximately 100,000 Eimeria tenella oocysts suspended in a 1 cc dose of saline. The following criteria were then evaluated over the next seven days:
A satisfactory challenge was obtained with Eimeria tenella.

buffered rumen fluid = test: Rumen screen, in vitro ruminal volatile fatty acid ratio (Examples 15, 16); assay type: cell-based, steer; conditions: Neg. Control 1.39
Protocol: Rumen fluid was removed from a fistulated steer and strained through a cheesecloth. An equal amount of pH 7 buffer was added to strained rumen fluid. After layering occurred, the lower layer was saved and again diluted with equal amount of buffer. Ten ml. portions of buffered rumen fluid were added to fermentation vessels containing 500 mg. fresh finely ground cattle ration, 1 mg cellubiose and a test compound listed in Table 1 below at the indicated concentration. The fermentation vesels were outfitted with one-way gas valves, placed in an incubator and shaken for 24 hours at 38° C. Fermentation was stopped by addition of 1 ml mercuric chloride. The liquid was decanted and analyzed for volatile fatty acids by gas chromatography. Test results are summarized in Table 1, wherein Bac=bacitracin.
The procedures of Example 15 were repeated in all essential details with the test compounds and concentrations listed in Table 1 below, as are the results of the test.

With “Bacitracin-Sodium-Lysocellin Complex [Example 5]” the “Average Gain” value [1] was 214 g, the “Gain/Feed Ratio” value [1] was 63.1 and the “Average Weight” value ([1]; Table 4) was 274.8. The Gain/Feed ([1]; Table 4) was 63.1, the “Average Gain Index” value [1] was 104.2 and the “Gain/Feed Ratio Index” value [1] was 99.0. The “Gain/Feed Data” value [2] was “.595”, the “Gains/gram Data” value [2] was 212.4 gram and the “Gain/Feed Index Relative to #1” value [2] was 105.7. The “Gains Index Relative to #1” value [2] was 114.8, the “Gain/Feed Index Relative to #2” value [2] was 99.8 and the “Gains Index Relative to #2” value [2] was 101.3. The Morbidity (Eimeria tenella [3]; 80 g/ton in feed, 4th-6th day) was 4/15, the Mortality (Eimeria tenella [3]; 80 g/ton in feed) was 0/15 and the “Gain, Grams Day 0-3” value (Eimeria tenella [3]; 80 g/ton in feed) was 56.1 Grams. For the same substance, the “Gain, Grams Day 4-10” value (Eimeria tenella [3]; 80 g/ton in feed) was 219.9 Grams, the “F/G Day 0-3” value (Eimeria tenella [3]; 80 g/ton in feed) was 1.70 and the “F/G Day 4-10” value (Eimeria tenella [3]; 80 g/ton in feed) was 1.62. The “Incidence of Bloody Droppings” value (Eimeria tenella [3]; 120 g/ton in feed, 4th-6th day) was “Moderate”, the Morbidity (Eimeria tenella [3]; 120 g/ton in feed, 4th-6th day) was 1/15 and the Mortality (Eimeria tenella [3]; 120 g/ton in feed) was 1/15. For the same substance, the “Gain, Grams Day 0-3” value (Eimeria tenella [3]; 120 g/ton in feed) was 58.8 Grams, the “Gain, Grams Day 4-10” value (Eimeria tenella [3]; 120 g/ton in feed) was 228.3 Grams and the “F/G Day 0-3” value (Eimeria tenella [3]; 120 g/ton in feed) was 1.72. The “F/G Day 4-10” value (Eimeria tenella [3]; 120 g/ton in feed) was 1.62, the “Cecal Bleeding” value (Eimeria tenella [4]; 14 g/ton Lasalocid (Approx.)) was “Severe” and the “Gain/Bird Days 0-3” value (Eimeria tenella [4]; 14 g/ton Lasalocid (Approx.)) was 59.9. The “Gain/Bird Days 4-10” value (Eimeria tenella [4]; 14 g/ton Lasalocid (Approx.)) was 147.7, the “anticoccidial activity (in words)” value (Eimeria tenella [4]; 36 (0.30 of 120) grams per ton) was “fair anticoccidial activity” and the “Cecal Bleeding” value (Eimeria tenella [4]; 36 g/ton Lasalocid (Approx.)) was “Moderate”. For the same substance, the “Gain/Bird Days 0-3” value (Eimeria tenella [4]; 36 g/ton Lasalocid (Approx.)) was 58.6, the “Gain/Bird Days 4-10” value (Eimeria tenella [4]; 36 g/ton Lasalocid (Approx.)) was 169.4 and the “Incidence of Bloody Droppings” value (Eimeria tenella [4]; 80 g/ton in feed) was “Severe”. For the same substance, the Morbidity (Eimeria tenella [4]; 80 g/ton in feed) was 11/15, the Mortality (Eimeria tenella [4]; 80 g/ton in feed) was 0/15 and the “F/G Day 0-3” value (Eimeria tenella [4]; 80 g/ton in feed) was 1.68. For the same substance, the “Gain/Bird Grams Day 0-3” value (Eimeria tenella [4]; 80 g/ton in feed) was 59.9 Grams, the “F/G Day 4-10” value (Eimeria tenella [4]; 80 g/ton in feed) was 2.12 and the “Gain/Bird Grams Day 4-10” value (Eimeria tenella [4]; 80 g/ton in feed) was 147.7 Grams. The “Cecal bleeding associated with E. tenella infections” value (Eimeria tenella [4]; 80 gram per ton) was “severe”, the “Incidence of Bloody Droppings” value (Eimeria tenella [4]; 120 g/ton in feed) was “Moderate” and the Morbidity (Eimeria tenella [4]; 120 g/ton in feed) was 8/15. The Mortality (Eimeria tenella [4]; 120 g/ton in feed) was 0/15, the “F/G Day 0-3” value (Eimeria tenella [4]; 120 g/ton in feed) was 1.65 and the “Gain/Bird Grams Day 0-3” value (Eimeria tenella [4]; 120 g/ton in feed) was 58.6 Grams. For the same substance, the “F/G Day 4-10” value (Eimeria tenella [4]; 120 g/ton in feed) was 1.83, the “Gain/Bird Grams Day 4-10” value (Eimeria tenella [4]; 120 g/ton in feed) was 169.7 Grams and the “anticoccidial activity (in words)” value (Eimeria tenella [4]; 120 grams per ton) was “good anticoccidial activity”.
With “Bacitracin-Zinc-Lysocellin Complex [Example 6]” the “Average Gain” value [1] was 219 g, the “Gain/Feed Ratio” value [1] was 66.7 and the “Average Weight” value ([1]; Table 4) was 279.4. For the same substance, the Gain/Feed ([1]; Table 4) was 66.7, the “Average Gain Index” value [1] was 106.6 and the “Gain/Feed Ratio Index” value [1] was 104.7. The “improvement in feed utilization efficiency vs unmedicated controls” value ([1]; statistical comparison, Table 4) was “significant imporvement”, the “Gain/Feed Data” value [2] was “.609” and the “Gains/gram Data” value [2] was 213.8 gram. For the same substance, the “Gain/Feed Index Relative to #1” value [2] was 108.2, the “Gains Index Relative to #1” value [2] was 115.5 and the “Gain/Feed Index Relative to #2” value [2] was 102.2. The “Gains Index Relative to #2” value [2] was 102.0 and the “A/P Ratio” value (buffered rumen fluid; Example 16, 10 ppm) was 1.14.
In the case of sodium lysocellin [reference compound], the “A/P Ratio” value (buffered rumen fluid; Example 15, 5 ppm, 24 hours at 38° C.) is reported as 1.07 and the “A/P Ratio” value (buffered rumen fluid; Example 16, 5 ppm) is reported as 1.07.
